{
  "source": "the NIST ThermoML archive (doi:10.1016/j.fluid.2005.07.009)",
  "key": {"[1]": {"settings": "Crystal; DTA"}, "[2]": {"assay": "Molar enthalpy of transition or fusion", "settings": "Crystal; DSC"}, "[3]": {"assay": "molar heat capacity at constant pressure", "settings": "101.33 kPa, Small sample (50 mg) DSC"}},
  "note": "± gives the expanded uncertainty stated by the source.",
  "data": [
    {"smiles": "CCCCCCCCCCO", "note": "[decan-1-ol]", "values": [
      {"measurement": "Triple point temperature", "setting": "[1]", "value": "278.67 ± 0.5", "unit": "K"},
      {"measurement": "Molar enthalpy of transition or fusion", "setting": "[2]", "value": "7.5 ± 0.213", "unit": "kcal/mol"},
      {"measurement": "molar heat capacity at constant pressure", "setting": "[3]; 215.12 K, Crystal", "value": "224.54 ± 4.5", "unit": "J/K/mol"},
      {"measurement": "molar heat capacity at constant pressure", "setting": "[3]; 216.09 K, Crystal", "value": "227.81 ± 4.6", "unit": "J/K/mol"},
      {"measurement": "molar heat capacity at constant pressure", "setting": "[3]; 217.28 K, Crystal", "value": "228.07 ± 4.6", "unit": "J/K/mol"},
      {"measurement": "molar heat capacity at constant pressure", "setting": "[3]; 218.46 K, Crystal", "value": "228.68 ± 4.6", "unit": "J/K/mol"},
      {"measurement": "molar heat capacity at constant pressure", "setting": "[3]; 219.05 K, Crystal", "value": "228.9 ± 4.6", "unit": "J/K/mol"},
      {"measurement": "molar heat capacity at constant pressure", "setting": "[3]; 219.59 K, Crystal", "value": "229.05 ± 4.6", "unit": "J/K/mol"},
      {"measurement": "molar heat capacity at constant pressure", "setting": "[3]; 222.22 K, Crystal", "value": "229.19 ± 4.6", "unit": "J/K/mol"},
      {"measurement": "molar heat capacity at constant pressure", "setting": "[3]; 222.81 K, Crystal", "value": "230.27 ± 4.6", "unit": "J/K/mol"},
      {"measurement": "molar heat capacity at constant pressure", "setting": "[3]; 223.03 K, Crystal", "value": "230.39 ± 4.6", "unit": "J/K/mol"},
      {"measurement": "molar heat capacity at constant pressure", "setting": "[3]; 226.41 K, Crystal", "value": "231.18 ± 4.6", "unit": "J/K/mol"},
      {"measurement": "molar heat capacity at constant pressure", "setting": "[3]; 227.05 K, Crystal", "value": "232.61 ± 4.7", "unit": "J/K/mol"},
      {"measurement": "molar heat capacity at constant pressure", "setting": "[3]; 229.62 K, Crystal", "value": "232.81 ± 4.7", "unit": "J/K/mol"},
      {"measurement": "molar heat capacity at constant pressure", "setting": "[3]; 230.15 K, Crystal", "value": "233.54 ± 4.7", "unit": "J/K/mol"},
      {"measurement": "molar heat capacity at constant pressure", "setting": "[3]; 231.71 K, Crystal", "value": "234.37 ± 4.7", "unit": "J/K/mol"},
      {"measurement": "molar heat capacity at constant pressure", "setting": "[3]; 232.3 K, Crystal", "value": "234.76 ± 4.7", "unit": "J/K/mol"},
      {"measurement": "molar heat capacity at constant pressure", "setting": "[3]; 233.74 K, Crystal", "value": "235.5 ± 4.7", "unit": "J/K/mol"},
      {"measurement": "molar heat capacity at constant pressure", "setting": "[3]; 234.54 K, Crystal", "value": "235.92 ± 4.7", "unit": "J/K/mol"},
      {"measurement": "molar heat capacity at constant pressure", "setting": "[3]; 235.82 K, Crystal", "value": "237.25 ± 4.8", "unit": "J/K/mol"},
      {"measurement": "molar heat capacity at constant pressure", "setting": "[3]; 236.3 K, Crystal", "value": "237.29 ± 4.8", "unit": "J/K/mol"},
      {"measurement": "molar heat capacity at constant pressure", "setting": "[3]; 237.11 K, Crystal", "value": "238.88 ± 4.8", "unit": "J/K/mol"},
      {"measurement": "molar heat capacity at constant pressure", "setting": "[3]; 238.28 K, Crystal", "value": "239.81 ± 4.8", "unit": "J/K/mol"},
      {"measurement": "molar heat capacity at constant pressure", "setting": "[3]; 239.94 K, Crystal", "value": "240.28 ± 4.8", "unit": "J/K/mol"},
      {"measurement": "molar heat capacity at constant pressure", "setting": "[3]; 240.47 K, Crystal", "value": "240.35 ± 4.8", "unit": "J/K/mol"},
      {"measurement": "molar heat capacity at constant pressure", "setting": "[3]; 241.16 K, Crystal", "value": "241 ± 4.8", "unit": "J/K/mol"},
      {"measurement": "molar heat capacity at constant pressure", "setting": "[3]; 242.71 K, Crystal", "value": "241.58 ± 4.8", "unit": "J/K/mol"},
      {"measurement": "molar heat capacity at constant pressure", "setting": "[3]; 244.15 K, Crystal", "value": "244.94 ± 4.9", "unit": "J/K/mol"},
      {"measurement": "molar heat capacity at constant pressure", "setting": "[3]; 246.13 K, Crystal", "value": "245.49 ± 4.9", "unit": "J/K/mol"},
      {"measurement": "molar heat capacity at constant pressure", "setting": "[3]; 248.85 K, Crystal", "value": "245.75 ± 4.9", "unit": "J/K/mol"},
      {"measurement": "molar heat capacity at constant pressure", "setting": "[3]; 249.22 K, Crystal", "value": "246.47 ± 4.9", "unit": "J/K/mol"},
      {"measurement": "molar heat capacity at constant pressure", "setting": "[3]; 250.88 K, Crystal", "value": "247.17 ± 4.9", "unit": "J/K/mol"},
      {"measurement": "molar heat capacity at constant pressure", "setting": "[3]; 251.14 K, Crystal", "value": "247.6 ± 5", "unit": "J/K/mol"},
      {"measurement": "molar heat capacity at constant pressure", "setting": "[3]; 252.58 K, Crystal", "value": "250.51 ± 5", "unit": "J/K/mol"},
      {"measurement": "molar heat capacity at constant pressure", "setting": "[3]; 253.49 K, Crystal", "value": "252.9 ± 5.1", "unit": "J/K/mol"},
      {"measurement": "molar heat capacity at constant pressure", "setting": "[3]; 284.18 K, Liquid", "value": "357.16 ± 7.1", "unit": "J/K/mol"},
      {"measurement": "molar heat capacity at constant pressure", "setting": "[3]; 285.11 K, Liquid", "value": "357.65 ± 7.2", "unit": "J/K/mol"},
      {"measurement": "molar heat capacity at constant pressure", "setting": "[3]; 286.23 K, Liquid", "value": "359.66 ± 7.2", "unit": "J/K/mol"},
      {"measurement": "molar heat capacity at constant pressure", "setting": "[3]; 287.17 K, Liquid", "value": "360.07 ± 7.2", "unit": "J/K/mol"},
      {"measurement": "molar heat capacity at constant pressure", "setting": "[3]; 288.21 K, Liquid", "value": "361.72 ± 7.2", "unit": "J/K/mol"},
      {"measurement": "molar heat capacity at constant pressure", "setting": "[3]; 289.63 K, Liquid", "value": "363.32 ± 7.3", "unit": "J/K/mol"},
      {"measurement": "molar heat capacity at constant pressure", "setting": "[3]; 290.29 K, Liquid", "value": "363.87 ± 7.3", "unit": "J/K/mol"},
      {"measurement": "molar heat capacity at constant pressure", "setting": "[3]; 291.08 K, Liquid", "value": "364.63 ± 7.3", "unit": "J/K/mol"},
      {"measurement": "molar heat capacity at constant pressure", "setting": "[3]; 292.13 K, Liquid", "value": "366.29 ± 7.3", "unit": "J/K/mol"},
      {"measurement": "molar heat capacity at constant pressure", "setting": "[3]; 293.23 K, Liquid", "value": "366.99 ± 7.3", "unit": "J/K/mol"},
      {"measurement": "molar heat capacity at constant pressure", "setting": "[3]; 294.29 K, Liquid", "value": "368.16 ± 7.4", "unit": "J/K/mol"},
      {"measurement": "molar heat capacity at constant pressure", "setting": "[3]; 295.69 K, Liquid", "value": "369.19 ± 7.4", "unit": "J/K/mol"},
      {"measurement": "molar heat capacity at constant pressure", "setting": "[3]; 296.43 K, Liquid", "value": "370.09 ± 7.4", "unit": "J/K/mol"},
      {"measurement": "molar heat capacity at constant pressure", "setting": "[3]; 297.49 K, Liquid", "value": "370.33 ± 7.4", "unit": "J/K/mol"},
      {"measurement": "molar heat capacity at constant pressure", "setting": "[3]; 298.55 K, Liquid", "value": "373 ± 7.5", "unit": "J/K/mol"},
      {"measurement": "molar heat capacity at constant pressure", "setting": "[3]; 299.51 K, Liquid", "value": "374.14 ± 7.5", "unit": "J/K/mol"},
      {"measurement": "molar heat capacity at constant pressure", "setting": "[3]; 300.21 K, Liquid", "value": "375.31 ± 7.5", "unit": "J/K/mol"},
      {"measurement": "molar heat capacity at constant pressure", "setting": "[3]; 301.18 K, Liquid", "value": "375.74 ± 7.5", "unit": "J/K/mol"},
      {"measurement": "molar heat capacity at constant pressure", "setting": "[3]; 302.45 K, Liquid", "value": "377.89 ± 7.6", "unit": "J/K/mol"},
      {"measurement": "molar heat capacity at constant pressure", "setting": "[3]; 304.22 K, Liquid", "value": "380.22 ± 7.6", "unit": "J/K/mol"},
      {"measurement": "molar heat capacity at constant pressure", "setting": "[3]; 305.31 K, Liquid", "value": "381.17 ± 7.6", "unit": "J/K/mol"},
      {"measurement": "molar heat capacity at constant pressure", "setting": "[3]; 306.42 K, Liquid", "value": "382.5 ± 7.7", "unit": "J/K/mol"},
      {"measurement": "molar heat capacity at constant pressure", "setting": "[3]; 307.18 K, Liquid", "value": "383.77 ± 7.7", "unit": "J/K/mol"},
      {"measurement": "molar heat capacity at constant pressure", "setting": "[3]; 308.14 K, Liquid", "value": "384.86 ± 7.7", "unit": "J/K/mol"}
    ]}
  ]
}
